Test results reported in paper PMC10348910, “Epigenetic reprogramming of cell cycle genes by ACK1 promotes breast cancer resistance to CDK4/6 inhibitor” (Oncogene, 2023).

Assays:
[1] = system: CCNB1, CCNB2 and CDC20 protein; test: immunoblotting of CCNB1, CCNB2 and CDC20; format: cell-based; settings: breast cancer cell lysates
From the text: Fig. 3 ACK1 inhibitor suppresses expression of cell cycle genes. A Cell lysates from vehicle or (R)-9b treated cells were immunoblotted using CCNB1, CCNB2 and CDC20 antibodies. B HCC-1395 and MDA-MB-231 cells were transfected with ACK1 and scrambled siRNAs, followed by qPCR using ACK1 primers, with 18S rRNA as internal control. C siRNA transfected cells were subjected to western blotting using ACK1 antibody, with Actin as loading control. RNA from silenced cells, (D) HCC-1395 and (E) MDA-MB-231 was subjected to qPCR using CCNB1, CCNB2 and CDC20 primers. 18S rRNA was used as housekeeping control. For (A) and (C), representative images of three independent experiments are shown. For (B, D, E), data are represented as the mean ± SEM. *p < 0.05, **p < 0.01, ***p < 0.001, unpaired two-tailed Student’s t test.
Vehicle or (R)-9b (5 µM, overnight in serum free media) treated cells were lysed by sonication in receptor lysis buffer (RLB) and lysates were fractionated by SDS-PAGE, and transferred onto a PVDF membrane (Immobilon). […]

[2] = system: pY88-H4 marks in CXCR4 promoter region; test: ChIP-qPCR with pY88-H4 antibody for CXCR4 gene; format: cell-based; settings: breast cancer cells
Method: Fig. 7 ACK1 inhibitor overcomes palbociclib-resistant breast cancer growth and metastasis. A 3 × 10^6 MDA-MB-468 cells were injected in the 4th inguinal mammary fat pad of female SCID mice. Once the tumors were palpable, the mice were treated with either vehicle (Captisol; n = 7), Palbociclib at 80 mg/kg (n = 6), or (R)-9b at 36 mg/Kg (n = 6) orally. In addition, mice were injected with (R)-9b at 24 mg/Kg (n = 7) subcutaneously. Mice were treated five times a week, for 22 days. B, C The tumors were harvested and photographed, and the weights were recorded. D Vehicle or (R)-9b treated breast cancer cells were subjected to ChIP using pY88-H4 antibody, followed by qPCR for CXCR4 gene. […] H Graphical quantitation of lung metastatic deposit. […] The metastases were assessed using IVIS. […] For (A, C–F, I), p values were calculated using unpaired two-tailed Student’s t test.
Cell pellets were resuspended in RLB buffer and sonicated and the soluble chromatin was incubated with antibodies and Protein-G/A magnetic beads. […] The size and quality of the library was evaluated using the Agilent BioAnalyzer (Agilent Technologies, Inc., Santa Clara, CA), and the library was quantitated with the Kapa Library Quantification Kit. Each enriched DNA library was then sequenced on an Illumina NextSeq 500 sequencer to generate 40–50 million 75-base paired-end reads (Illumina, Inc., San Diego, CA). […]

With `CN1CCN(c2ccc(Nc3ncc(Cl)c(NC[C@H]4CCCO4)n3)cc2)CC1` [(R)-9b] the “CCNB1, CCNB2 and CDC20 protein abundance” value [1] was “decrease in respective protein abundance” and the “pY88-H4 epigenetic marks in CXCR4 promoter region” value [2] was “erased these marks”.
